Data: patent US20250114374A1, “BCL-2 INHIBITORS” (Newave Pharmaceutical Inc., priority 2021, published 2025)
pIC50: −log10 of the molar value.

test system: RS4; 11 with G101V mutation; assay: In vitro anti-proliferation assay (ATPlite luminescence) in BCL-2-dependent ALL cell line RS4;11 with G101V mutation; format: cell-based; settings: Homo sapiens, RS4-11, 72 h; read-out: RS411-G101V IC50
Method in brief: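 IC50 came from luminescent ATP quantification (ATPlite) following cell lysis. Compound dose ranges were applied for roughly 72 h to about 1×10^4 G101V-mutant RS4;11 cells per well, in 10% FBS medium.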

pIC50 | Structure (SMILES)
7.51 | Cc1ccccc1[C@@H]1CN([C@H]2CCCOC2)CCN1C1CC2(CCN(c3ccc(C(=O)NS(=O)(=O)c4cc5c(c([N+](=O)[O-])c4)N[C@H](C4CCOCC4)CO5)c(N4c5cc6cc[nH]c6nc5O[C@H]5COCC[C@@H]54)c3)CC2)C1 [Example 179, N—(((R)-5-nitro-3-(tetrahydro-2H-pyran-4-yl)-3,4-dihydro-2H-benzo[b][1,4]oxazin-7-yl)sulfonyl)-2-((5aS,9aR)-6,7,9,9a-tetrahydro-1H-pyrano[3,4-b]pyrrolo[3′,2′:5,6]pyrido[3,2-e][1,4]oxazin-5(5aH)-yl)-4-(2-((R)-4-((S)-tetrahydro-2H-pyran-3-yl)-2-(o-tolyl)piperazin-1-yl)-7-azaspiro[3.5]nonan-7-yl)benzamide]
6.41 | CC(C)Oc1ccccc1[C@@H]1CN([C@H]2CCOc3c(F)cc(F)cc32)CCN1C1CC2(CCN(c3ccc(C(=O)NS(=O)(=O)c4cc5c(c([N+](=O)[O-])c4)N[C@H](C4CCOCC4)CO5)c(N4c5cc6cc[nH]c6nc5O[C@H]5COCC[C@@H]54)c3)CC2)C1 [Example 214, 4-(2-((R)-4-((S)-6,8-difluorochroman-4-yl)-2-(2-isopropoxyphenyl)piperazin-1-yl)-7-azaspiro[3.5]nonan-7-yl)-N-(((R)-5-nitro-3-(tetrahydro-2H-pyran-4-yl)-3,4-dihydro-2H-benzo[b][1,4]oxazin-7-yl)sulfonyl)-2-((5aS,9aR)-6,7,9,9a-tetrahydro-1H-pyrano[3,4-b]pyrrolo[3′,2′:5,6]pyrido[3,2-e][1,4]oxazin-5(5aH)-yl)benzamide]
6.92 | CC(C)Oc1ccccc1[C@@H]1CN([C@H]2CCOc3nc(N4CCOC[C@@H]4C)c(F)cc32)CCN1C1CC2(CCN(c3ccc(C(=O)NS(=O)(=O)c4cc5c(c([N+](=O)[O-])c4)N[C@H](C4CCOCC4)CO5)c(N4c5cc6cc[nH]c6nc5O[C@H]5COCC[C@@H]54)c3)CC2)C1 [Example 218, 4-(2-((R)-4-((S)-6-fluoro-7-((S)-3-methylmorpholino)-3,4-dihydro-2H-pyrano[2,3-b]pyridin-4-yl)-2-(2-isopropoxyphenyl)piperazin-1-yl)-7-azaspiro[3.5]nonan-7-yl)-N-(((R)-5-nitro-3-(tetrahydro-2H-pyran-4-yl)-3,4-dihydro-2H-benzo[b][1,4]oxazin-7-yl)sulfonyl)-2-((5aS,9aR)-6,7,9,9a-tetrahydro-1H-pyrano[3,4-b]pyrrolo[3′,2′:5,6]pyrido[3,2-e][1,4]oxazin-5(5aH)-yl)benzamide]
7.13 | Cc1ccccc1[C@@H]1CN(C2CCOCC2)CCN1C1CC2(CCN(c3ccc(C(=O)NS(=O)(=O)c4cc5c(c([N+](=O)[O-])c4)N[C@H](C4CCOCC4)CO5)c(N4c5cc6cc[nH]c6nc5O[C@H]5COCC[C@@H]54)c3)CC2)C1 [Example 183, N—(((R)-5-nitro-3-(tetrahydro-2H-pyran-4-yl)-3,4-dihydro-2H-benzo[b][1,4]oxazin-7-yl)sulfonyl)-2-((5aS,9aR)-6,7,9,9a-tetrahydro-1H-pyrano[3,4-b]pyrrolo[3′,2′:5,6]pyrido[3,2-e][1,4]oxazin-5(5aH)-yl)-4-(2-((R)-4-(tetrahydro-2H-pyran-4-yl)-2-(o-tolyl)piperazin-1-yl)-7-azaspiro[3.5]nonan-7-yl)benzamide]
7.02 | CC(C)Oc1ccccc1[C@@H]1CN([C@@H]2COCc3c(F)cc(F)cc32)CCN1C1CC2(CCN(c3ccc(C(=O)NS(=O)(=O)c4cc5c(c([N+](=O)[O-])c4)N[C@H](C4CCOCC4)CO5)c(N4c5cc6cc[nH]c6nc5O[C@H]5COCC[C@@H]54)c3)CC2)C1 [Example 231, 4-(2-((R)-4-((S)-6,8-difluoroisochroman-4-yl)-2-(2-isopropoxyphenyl)piperazin-1-yl)-7-azaspiro[3.5]nonan-7-yl)-N-(((R)-5-nitro-3-(tetrahydro-2H-pyran-4-yl)-3,4-dihydro-2H-benzo[b][1,4]oxazin-7-yl)sulfonyl)-2-((5aS,9aR)-6,7,9,9a-tetrahydro-1H-pyrano[3,4-b]pyrrolo[3′,2′:5,6]pyrido[3,2-e][1,4]oxazin-5(5aH)-yl)benzamide]

same assay, conditions: cellular anti-proliferative IC50, about 72 hours, medium with 10% FBS, ATPlite; read-out: RS411-G101V IC50

Structure (SMILES) | pIC50
COc1cc(CN2CCN([C@H]3CC4(CCN(c5ccc(C(=O)NS(=O)(=O)c6ccc(NCC7CCC(C)(O)CC7)c([N+](=O)[O-])c6)c(N6c7cc8cc[nH]c8nc7O[C@H]7COCC[C@@H]76)c5)CC4)[C@@H]3C)[C@H](c3ccccc3C)C2)cnc1N1CCOCC1 (stereo partly drawn) [Example 141, 2-[(3R,8S)-2,5-dioxa-9,15,17-triazatetracyclo[8.7.0.0^{3,8}.0^{12,16}]heptadeca-1(10),11,13,16-tetraen-9-yl]-4-[(1S,2S)-2-[(2R)-4-{[5-methoxy-6-(morpholin-4-yl)pyridin-3-yl]methyl}-2-(2-methylphenyl)piperazin-1-yl]-1-methyl-7-azaspiro[3.5]nonan-7-yl]-N-[3-nitro-4-({[(1r,4r)-4-hydroxy-4-methylcyclohexyl]methyl}amino)benzenesulfonyl]benzamide] | 7.44
COc1c(N2CCOC[C@@H]2C)ncc2c1COC[C@@H]2N1CCN(C2CC3(CCN(c4ccc(C(=O)NS(=O)(=O)c5cc6c(c([N+](=O)[O-])c5)N[C@H](C5CCOCC5)CO6)c(N5c6cc7cc[nH]c7nc6O[C@H]6COCC[C@@H]65)c4)CC3)C2)[C@H](c2ccccc2OC(C)C)C1 [Example 251, 2-[(3R,8S)-2,5-dioxa-9,15,17-triazatetracyclo[8.7.0.0^{3,8}.0^{12,16}]heptadeca-1(10),11,13,16-tetraen-9-yl]-4-{2-[(2R)-2-(2-isopropoxyphenyl)-4-[(4R)-8-methoxy-7-[(3S)-3-methylmorpholin-4-yl]-1H,3H,4H-pyrano[4,3-c]pyridin-4-yl]piperazin-1-yl]-7-azaspiro[3.5]nonan-7-yl}-N-[(3R)-5-nitro-3-(oxan-4-yl)-3,4-dihydro-2H-1,4-benzoxazin-7-ylsulfonyl]benzamide] | 7.57
CC(C)Oc1ccccc1[C@@H]1CN(Cc2ccc(C(F)(F)F)nc2)CCN1C1CC2(CCN(c3ccc(C(=O)NS(=O)(=O)c4cc5c(c([N+](=O)[O-])c4)N[C@H](C4CCOCC4)CO5)c(N4c5cc6cc[nH]c6nc5O[C@H]5COCC[C@@H]54)c3)CC2)C1 [Example 261, 2-[(3R,8S)-2,5-dioxa-9,15,17-triazatetracyclo[8.7.0.0^{3,8}.0^{12,16}]heptadeca-1(10),11,13,16-tetraen-9-yl]-4-{2-[(2R)-2-(2-isopropoxyphenyl)-4-{[6-(trifluoromethyl)pyridin-3-yl]methyl}piperazin-1-yl]-7-azaspiro[3.5]nonan-7-yl}-N-[(3R)-5-nitro-3-(oxan-4-yl)-3,4-dihydro-2H-1,4-benzoxazin-7-ylsulfonyl]benzamide] | 8.41
COc1cc(CN2CCN(C3CC4(CCN(c5ccc(C(=O)NS(=O)(=O)c6ccc(NCC7CCC(C)(O)CC7)c([N+](=O)[O-])c6)c(N6c7cc8cc[nH]c8nc7O[C@H]7COCC[C@@H]76)c5)CC4)C3)[C@@H](c3ccccc3OC(C)C)C2)cnc1N1CCOCC1 (stereo partly drawn) [Example 101, N-((4-((((1r,4r)-4-hydroxy-4-methylcyclohexyl)methyl)amino)-3-nitrophenyl)sulfonyl)-4-(2-((S)-2-(2-isopropoxyphenyl)-4-((5-methoxy-6-morpholinopyridin-3-yl)methyl)piperazin-1-yl)-7-azaspiro[3.5]nonan-7-yl)-2-((5aS,9aR)-6,7,9,9a-tetrahydro-1H-pyrano[3,4-b]pyrrolo[3′,2′:5,6]pyrido[3,2-e][1,4]oxazin-5(5aH)-yl)benzamide] | 7.89
CC(C)Oc1ccccc1[C@@H]1CN(Cc2ccc(F)c(F)c2)CCN1C1CC2(CCN(c3ccc(C(=O)NS(=O)(=O)c4ccc(NCC5CCOCC5)c([N+](=O)[O-])c4)c(N4c5cc6cc[nH]c6nc5O[C@H]5COCC[C@@H]54)c3)CC2)C1 [Example 186, 4-{2-[(2R)-4-[(3,4-difluorophenyl)methyl]-2-(2-isopropoxyphenyl)piperazin-1-yl]-7-azaspiro[3.5]nonan-7-yl}-2-[(3R,8S)-2,5-dioxa-9,15,17-triazatetracyclo[8.7.0.0^{3,8}.0^{12,16}]heptadeca-1(10),11,13,16-tetraen-9-yl]-N-{3-nitro-4-[(oxan-4-ylmethyl)amino]benzenesulfonyl}benzamide] | 7.97
CC(C)Oc1ccccc1[C@H]1CN(Cc2ccc(N3CCOC[C@H]3C)c(F)c2)CCN1C1CC2(CCN(c3ccc(C(=O)NS(=O)(=O)c4ccc(NCC5CCC(C)(O)CC5)c([N+](=O)[O-])c4)c(N4c5cc6cc[nH]c6nc5O[C@H]5COCC[C@@H]54)c3)CC2)C1 (stereo partly drawn) [Example 153, 2-[(3R,8S)-2,5-dioxa-9,15,17-triazatetracyclo[8.7.0.0^{3,8}.0^{12,16}]heptadeca-1(10),11,13,16-tetraen-9-yl]-4-{2-[(2S)-4-({3-fluoro-4-[(3R)-3-methylmorpholin-4-yl]phenyl}methyl)-2-(2-isopropoxyphenyl)piperazin-1-yl]-7-azaspiro[3.5]nonan-7-yl}-N-[3-nitro-4-({[(1r,4r)-4-hydroxy-4-methylcyclohexyl]methyl}amino)benzenesulfonyl]benzamide] | 7.33
Cc1ccccc1[C@@H]1CN([C@@H]2CCOc3c2ccc(F)c3F)CCN1C1CC2(CCN(c3ccc(C(=O)NS(=O)(=O)c4cc5c(c([N+](=O)[O-])c4)N[C@H](C4CCOCC4)CO5)c(N4c5cc6cc[nH]c6nc5O[C@H]5COCC[C@@H]54)c3)CC2)C1 [Example 195, 4-{2-[(2R)-4-[(4R)-7,8-difluoro-3,4-dihydro-2H-1-benzopyran-4-yl]-2-(2-methylphenyl)piperazin-1-yl]-7-azaspiro[3.5]nonan-7-yl}-2-[(3R,8S)-2,5-dioxa-9,15,17-triazatetracyclo[8.7.0.0^{3,8}.0^{12,16}]heptadeca-1(10),11,13,16-tetraen-9-yl]-N-[(3R)-5-nitro-3-(oxan-4-yl)-3,4-dihydro-2H-1,4-benzoxazin-7-ylsulfonyl]benzamide] | 7.02
